Measurements from patent US20040234580A1, “Animal feeds including actives and methods of using the same” (priority 2001, published 2004).

What was measured:
[1] = Ivermectin content of dog blood after ad libitum feeding of ivermectin-containing dog food (HPLC); assay type: in vivo; conditions: female mixed breed dog about 10 kg; Example 2 feed (approx. 1121.1 μg ivermectin/kg db) ad libitum; blood drawn four hours after eating, day 7 and seven days later
Description: The dog food from this run was fed ad libitum to an intact female mixed breed dog weighing about 10 kg. On day 7, blood was drawn from the dog four hours after eating and stored in an anti-coagulant tube with calcium EDTA in a refrigerator. Seven days later, the same dog was again fed the ivermectin-containing feed ad libitum and blood was collected four hours post-feeding. This sample was also refrigerated in the same fashion as the first sample.
The blood samples were then analyzed to determine the content of ivermectin therein, using HPLC. The procedure used was described in Diclidnson, Journal of Chromatography, 58:250-257 (1990). In this procedure, 0.5 ml of each blood sample was purified using solid phase extraction (SPE) cartridges and dissolved in a small volume of mobile phase for injection onto the HPLC column. The method has a limit of detection of about 2 ng/ml and uses an internal standard. After preparation of the internal standard, a standard curve is constructed using ivermectin-spiked blood samples. A known 1% ivermectin sample was used as the primary standard.
The blood samples from the dog were then analyzed for ivermectin content with HPLC peak heights corrected using the internal standard.

[2] = Storage stability of ivermectin in extruded dog food (HPLC content, frozen versus ambient); assay type: physicochemical
Description: Following this treatment, the product was dried to a moisture level of less than 10% by weight. Three samples from the dryer were subsequently frozen and another […] placed in a plastic bag and stored at room temperature, for a period in excess of six months.
The products resulting from this test were analyzed to determine the content of ivermectin in the samples. In this analysis, each feed sample was ground in a Retsch mill at low speed using a 2 mm grating screen, so that the ground material would pass through a #10 mesh screen. A total of six samples, three frozen and three stored at room temperature, were processed. In each case, three 37.5 g of a sample was placed in a 250 ml bottle and 100 ml of methanol was added. The bottle was capped, the sample was sonicated for 20 minutes and shaken for 1 hour. 40 ml of the extract was added to a centrifuge tube and centrifuged for 5 minutes at 2000 rpm. 20 ml of the supernatant solution was then passed through a alumina column. The first five ml was rejected and the remainder of the liquid through the column was collected as a purified sample. 2 ml of the purified sample was mixed with a 5 ml mixture of acetonitrile:water (1:1), and a solid phase extraction (SPE) was performed in accordance with the procedure described in Doherty et al., Analytical Chemists International, 81:869(4) (1998). […]

Substance: Ivermectin
- ivermectin in dog blood samples [1]: 5 to 8 ng/mL
- average ivermectin content of the three frozen and the ambient-stored samples ([2]; co-extruded pillow dog food of Example 1, stored frozen or at room temperature in excess of six months, expected content 0.42 μg/kg, HPLC): 0.43 µg/kg
- effect of storage conditions (frozen versus ambient) upon ivermectin potency ([2]; dog food of Example 1, frozen versus room temperature in excess of six months): little effect
